In ChEMBL document CHEMBL1201862, “PubChem BioAssay data set” (2004):
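Tested at 5 concentrations; 48 h exposure; 96-well plates; endpoints linearly interpolated, else capped at highest concentration. GI50 = concentration required for 50% inhibition of growth.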 Calls of active or inactive are those of the source. Rule as the data show it: active = GI50 up to about 1.1 µM and inactive = higher.

Experiments:
Experiment in all cases: NCI-60 cell line screen, 48 h
SK-MEL-5 = system: SK-MEL-5
PC-3 = system: PC-3
SK-OV-3 = system: SK-OV-3
HT-29 = system: HT-29
KM12 = system: KM12
RPMI-8226 = system: RPMI-8226
SNB-75 = system: SNB-75
SF-539 = system: SF-539
M14 = system: M14
HCT-15 = system: HCT-15
TK-10 = system: TK-10
RXF 393 = system: RXF 393
Malme-3M = system: Malme-3M
IGROV-1 = system: IGROV-1
U-251 = system: U-251
NCI/ADR-RES = system: NCI/ADR-RES
OVCAR-8 = system: OVCAR-8
A549 = system: A549
HOP-62 = system: HOP-62
SR = system: SR

Row | Compound | GI50 (SK-MEL-5) | GI50 (PC-3) | GI50 (SK-OV-3) | GI50 (HT-29) | GI50 (KM12) | GI50 (RPMI-8226) | GI50 (SNB-75) | GI50 (SF-539) | GI50 (M14) | GI50 (HCT-15) [µM] | GI50 (TK-10) | GI50 (RXF 393) | GI50 (Malme-3M) | GI50 (IGROV-1) | GI50 (U-251) | GI50 (NCI/ADR-RES) | GI50 (OVCAR-8) | GI50 (A549) | GI50 (HOP-62) | GI50 (SR)
1 | CCC(C)(C)c1ccc(Oc2cccc(C(=O)O)c2)cc1 | 43.1 µM (inactive) | 55 µM (inactive) | 72.1 µM (inactive) | 44.4 µM (inactive) | 47.1 µM (inactive) | 28.8 µM (inactive) | 37.9 µM (inactive) | 33.5 µM (inactive) | 52.8 µM (inactive) | 39.5 | > 100 µM (inactive) | 98.6 µM (inactive) | 44.6 µM (inactive) | > 100 µM (inactive) | 41.8 µM (inactive) | 50.1 µM (inactive) | 69.7 µM (inactive) | 38.2 µM (inactive) | 64.7 µM (inactive) | –
2 | CCN(CCO)CC1CCCC2CCCCC21 (stereo unspecified) | > 100 µM (inactive) | > 100 µM (inactive) | > 100 µM (inactive) | > 100 µM (inactive) | > 100 µM (inactive) | > 100 µM (inactive) | > 100 µM (inactive) | > 100 µM (inactive) | > 100 µM (inactive) | > 100 | > 100 µM (inactive) | > 100 µM (inactive) | > 100 µM (inactive) | > 100 µM (inactive) | > 100 µM (inactive) | > 100 µM (inactive) | > 100 µM (inactive) | > 100 µM (inactive) | > 100 µM (inactive) | –
3 | Cc1ccc(C(=O)N/N=C(\N=N\c2ccccc2[N+](=O)[O-])c2ccc(N(C)C)cc2)cc1 | > 100 µM (inactive) | > 100 µM (inactive) | > 100 µM (inactive) | > 100 µM (inactive) | > 100 µM (inactive) | > 100 µM (inactive) | – | > 100 µM (inactive) | > 100 µM (inactive) | 92.5 | > 100 µM (inactive) | – | – | > 100 µM (inactive) | > 100 µM (inactive) | > 100 µM (inactive) | > 100 µM (inactive) | > 100 µM (inactive) | – | 33.7 µM (inactive)
4 | Cc1[nH]c2[nH]c(=S)nc(NC(N)=S)c2c1Cc1ccccc1 | 13.4 µM (inactive) | 47 µM (inactive) | 76 µM (inactive) | 22.3 µM (inactive) | 16.4 µM (inactive) | 12.7 µM (inactive) | 31.9 µM (inactive) | 37.2 µM (inactive) | 42.3 µM (inactive) | 58.6 | 62.8 µM (inactive) | – | – | 59 µM (inactive) | 43.9 µM (inactive) | 48.8 µM (inactive) | 51.9 µM (inactive) | 75.5 µM (inactive) | 47 µM (inactive) | 11.5 µM (inactive)
5 | O=C(c1ccccc1)c1ccc(N2C(=O)/C(=C/c3cccc([N+](=O)[O-])c3)N=C2c2ccccc2)c(N2C(=O)/C(=C/c3cccc([N+](=O)[O-])c3)N=C2c2ccccc2)c1 | 2.34 µM (inactive) | 27.3 µM (inactive) | > 100 µM (inactive) | 41.9 µM (inactive) | 11 µM (inactive) | 12.8 µM (inactive) | 15.1 µM (inactive) | 26.3 µM (inactive) | 14.4 µM (inactive) | 16.5 | 42.5 µM (inactive) | – | – | 32.4 µM (inactive) | 78.7 µM (inactive) | 25.1 µM (inactive) | 42.5 µM (inactive) | 11 µM (inactive) | 75.3 µM (inactive) | 23.4 µM (inactive)
6 | C=C1C(=O)[C@@]23CC[C@@H]4[C@@]5(C)CCC[C@@]4(OC5=O)C2(C)CC[C@]1(OC)C3 (stereo partly specified) | 1.59 µM (inactive) | 1.05 µM (active) | – | 0.36 µM (active) | 2.32 µM (inactive) | 0.205 µM (active) | 1.24 µM (inactive) | 1.57 µM (inactive) | 1.72 µM (inactive) | 0.581 | 1.38 µM (inactive) | – | – | 1.97 µM (inactive) | – | 1.45 µM (inactive) | 0.611 µM (active) | 3.27 µM (inactive) | 1.17 µM (inactive) | 0.23 µM (active)
